Values joined by “and” are separate entries in the source; they are usually repeats but may differ in a detail not shown here. Equal entries are not always repeated. “Also recorded” adds a separate entry of the source.
Legend:
[1] = test system: HT-1080 (human connective tissue fibrosarcoma) cells; test: MTT cytotoxicity assay on HT-1080 tumor cells, 72 h; assay type: cell-based; details: MTT, 72 h; ne = no effect in the tested concentration (up to 100 μg/mL)
Experimental: (§1) Tumor cell lines HT-1080 (human connective tissue fibrosarcoma) and MH-22A (mouse hepatocarcinoma) were used. All of the cells were obtained from the American Type Culture Collection ((ATCC,) Rockville, MD, USA). HT-1080 and MH-22A cells (4 × 10^4 cell/mL) were seeded in 96-well plates in Dulbecco’s modified Eagle’s medium (DMEM) containing 10% fetal bovine serum and cultivated for 72 h at 37 °C, 5% CO2 by exposure to different compounds concentrations (100 μg/mL, 25 μg/mL, 6.25 μg/mL, and 1.56 μg/mL). Cell viability was measured using 3-(4,5-dimethylthiazol-2-yl)-2,5-diphenyl-tetrazolium bromide (MTT) assay. In brief, after incubating with compounds, the culture medium was removed and fresh medium with 0.2 mg/mL MTT was added in each well of the plate. After incubation (3 h, 37 °C, 5% CO2), the medium with MTT was removed, and 200 μL of DMSO was added at once to each sample. The samples were tested at 540 nm on a Tecan multiplate reader Infinite1000 (Tecan Austria GmbH, Salzburg, Austria). The IC50 was calculated using the program Graph Pad Prism® 3.0.

[2] = test system: MH-22A (mouse hepatocarcinoma) cells; test: MTT cytotoxicity assay on MH-22A tumor cells, 72 h; assay type: cell-based; details: MTT, 72 h; ne = no effect in the tested concentration (up to 100 μg/mL)
Experimental: as §1

[3] = Self-assembling properties by dynamic light scattering (DLS); assay type: physicochemical; details: for PDI ± SD, 1 Set: freshly prepared samples; for Zeta-Pot ± SD: freshly prepared samples in water, 0.5 mg/mL (1–7), 0.25 mg/mL (8–10), 0.1 mg/mL (11); for PDI ± SD, 2 Set: two weeks after the first set, samples stored at r.t.; for Stability of nanoparticles: two weeks of storage at r.t., DLS
Experimental: Samples of compounds for dynamic light scattering (DLS) studies were prepared by thin-film hydration method in an aqueous solution at a concentration of 0.5 mg/mL for compounds 1–7, 0.25 mg/mL for compounds 8–10, and 0.1 mg/mL for compound 11. A corresponding amount of compounds was weighted in a round-bottom flask and dissolved in chloroform; then, the organic solvent was removed in vacuo, and the residue was dried in high vacuo for 1 h. An appropriate amount of deionised water was added to each flask for the preparation of stock solutions with the above-mentioned concentrations. Samples were prepared by sonication using a bath-type sonicator (Cole Parmer Ultrasonic Cleaner 8891CPX (Vernon Hills, IL, USA)). Samples were sonicated for 60 min at 50 °C.
The DLS measurements of the nanoparticles in an aqueous solution were carried out on a Zetasizer Nano ZSP (Malvern Panalytical Ltd., Malvern, UK) instrument with Malvern Instruments Ltd. Software 7.12, using the following specifications—medium: water; refractive index: 1.33; viscosity: 0.8872 cP; temperature: 25 °C; dielectric constant: 78.5; nanoparticles: liposomes; refractive index of materials: 1.60; detection angle: 173°; wavelength: 633 nm. Data were analysed using the multimodal number distribution software that was included with the instrument. The measurements were performed in triplicate in order to check their reproducibility.

[4] = MTT cytotoxicity assay on HT-1080 tumor cells, 72 h; assay type: cell-based, human; details: human, HT-1080 fibrosarcoma cells, MTT, 72 h; ne = no effect in the tested concentration (up to 100 μg/mL); read-out: Cytotoxicity IC50, HT-1080
Experimental: as §1

[5] = MTT cytotoxicity assay on MH-22A tumor cells, 72 h; assay type: cell-based, mouse; details: mouse, MH-22A hepatocarcinoma cells, MTT, 72 h; ne = no effect in the tested concentration (up to 100 μg/mL); read-out: Cytotoxicity IC50, MH-22A
Experimental: as §1

[6] = test system: NIH 3T3 (Mouse Swiss Albino embryo fibroblast) cells; test: Basal cytotoxicity test (neutral red uptake) with estimation of LD50 from IC50; assay type: cell-based; details: category by estimated LD50 (mg/kg)
Experimental: The neutral red uptake (NRU) assay was performed according to the standard protocol of Stokes modified by NICEATM-ECVAM validation study. The NRU cytotoxicity assay procedure was based on the ability of viable cells to incorporate and bind neutral red, which is a supravital dye.
NIH 3T3 (Mouse Swiss Albino embryo fibroblast) cells (9000 cells/well) were placed into 96-well plates for 24 h in DMEM medium containing 5% fetal bovine serum (FBS). Then, they were exposed to the test compound over a range of seven concentrations (1000 μg/mL, 316 μg/mL, 100 μg/mL, 31 μg/mL, 10 μg/mL, 3.0 μg/mL, and 1.0 μg/mL) for 24 h. Untreated cells were used as a control. After 24 h, the medium was removed from all plates. Then, 250 μL of neutral red (NR) solution was added (0.05 mg/mL NR in DMEM 24 h pre-incubated at 37 °C and then filtered before use through a 0.22-µm syringe filter). Plates were incubated for 3 h, and then, cells were washed three times with phosphate buffered saline (PBS). The dye within viable cells was released by extraction with a mixture of acetic acid, ethanol, and water (1:50:49). The absorbance of neutral red was measured using a spectrophotometer multiplate reader Infinite M1000 (Tecan Austria GmbH, Salzburg, Austria) at 540 nm. The optical density (OD) was calculated using the formula: OD (treated cells) × 100/OD (control cells). The IC50 values were calculated using the program Graph Pad Prism® 3.0.
Data from the in vitro tests were used for estimating the starting dose for acute oral systemic toxicity tests in rodent. The in vivo starting dose is an estimated LD50 value that is calculated by inserting the in vitro IC50 value into a regression formula: log LD50 (mM/kg) = 0.439 log IC50 (mM) + 0.621 [29]. The value is recalculated to mg/kg, and compounds are evaluated in accordance with four toxicity categories: category 1: LD50 ≤ 5 mg/kg (highly toxic); category 2: 5 < LD50 ≤ 50 mg/kg (moderately toxic); category 3: 50 < LD50 ≤ 300 mg/kg (slightly toxic); category 4: 300 < LD50 ≤ 2000 mg/kg (practically non-toxic). Using an alternative in vitro method enables comparing the possible toxicity of new compounds and selecting compounds for further study, which will vastly reduce the number of animal experiments.

[7] = test system: Bacillus subtilis subsp. spizizenii; test: Toxicity screen, serial dilution-spot test; assay type: cell-based; details: gram positive; 24 h exposure in DI water, 28 °C; 0.0001 = no colonies at 0.001 mM;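 further: last dilution that did not fully inhibit growth with colonies still present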
Experimental: (§2) An estimation of the toxicity of 4-(N-alkylpyridinium)-1,4-DHP derivatives 3, 6, 7, and 9–11 was performed using six prokaryotic (bacteria) and one eukaryotic (yeast) microorganism species according to the procedure elaborated by Suppi et al.. The microorganisms used in the study and their origin were: Bacillus subtilis subsp. spizizenii (ATCC® 6633™*, Microbiologics®, St Cloud, MN, USA), Escherichia coli (ATCC® 8739, Microbiologics®), Klebsiella pneumoniae (Latvian Microorganisms strain collection, LMKK, strain number 535, Riga, Latvia), Micrococcus luteus (LMKK, No. 25), Pseudomonas aeruginosa (NCTC 12924, Biosciences Ltd., Dublin, Ireland), Proteus mirabilis (LMKK, No 590), and Saccharomyces cerevisiae, CEN.PK2 strain [32].
(§3) Bacteria and yeast cultures were cultivated until their exponential growth phase (optical density max 1); then, 100 µL of cell suspension was taken, washed in deionised (DI) water, and added to serially diluted samples of corresponding 4-(N-alkylpyridinium)-1,4-DHPs in DI water. All 1,4-DHPs were tested in five serially diluted concentrations (10 mM, 1 mM, 0.1 mM, 0.01 mM, and 0.001 mM). Test organisms were exposed to 1,4-DHP derivatives in DI water on 96-well microplates (Corning, Corning, NY, USA) at 28 °C for 24 h without shaking in the dark. Then, a 5 µL sample was taken from each well and spotted on yeast extract, bactopeptone, dextrose broth (YPD) (yeast extract 1%, bactopeptone 2%, glucose 2% and agar 2%) plates to test the growth of yeasts and lysogeny broth (LB) (yeast extract 0.5%, bactopeptone 1%, NaCl 0.5% and agar 2%) to test the growth for bacteria. Plates were left in 30 °C for 24 h, and assessed for microbial growth.
(§4) If there were no colonies after incubation with 1,4-DHPs in the last concentration of (0.001 mM), then their boundary concentration was set to 0.0001 mM or 0.1 µM.

[8] = test system: Escherichia coli; test: Toxicity screen, serial dilution-spot test; assay type: cell-based; details: gram negative; 24 h exposure in DI water, 28 °C; 0.0001 = no colonies at 0.001 mM;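 further: last dilution that did not fully inhibit growth with colonies still present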
Experimental: as §2, §3, §4

[9] = test system: Klebsiella pneumoniae; test: Toxicity screen, serial dilution-spot test; assay type: cell-based; details: gram negative; 24 h exposure in DI water, 28 °C; 0.0001 = no colonies at 0.001 mM;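 further: last dilution that did not fully inhibit growth with colonies still present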
Experimental: as §2, §3, §4

[10] = test system: Micrococcus luteus; test: Toxicity screen, serial dilution-spot test; assay type: cell-based; details: gram positive; 24 h exposure in DI water, 28 °C; 0.0001 = no colonies at 0.001 mM;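 further: last dilution that did not fully inhibit growth with colonies still present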
Experimental: as §2, §3, §4

[11] = test system: Proteus mirabilis; test: Toxicity screen, serial dilution-spot test; assay type: cell-based; details: gram negative; 24 h exposure in DI water, 28 °C; 0.0001 = no colonies at 0.001 mM;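 further: last dilution that did not fully inhibit growth with colonies still present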
Experimental: as §2, §3, §4

[12] = test system: Pseudomonas aeruginosa; test: Toxicity screen, serial dilution-spot test; assay type: cell-based; details: gram negative; 24 h exposure in DI water, 28 °C; 0.0001 = no colonies at 0.001 mM;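 further: last dilution that did not fully inhibit growth with colonies still present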
Experimental: as §2, §3, §4

[13] = test system: Saccharomyces cerevisiae, CEN.PK2 strain; test: Toxicity screen, serial dilution-spot test; assay type: cell-based; details: yeast; 24 h exposure in DI water, 28 °C; 0.0001 = no colonies at 0.001 mM;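 further: last dilution that did not fully inhibit growth with colonies still present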
Experimental: as §2, §3, §4

[14] = test system: six prokaryotic (bacteria) and one eukaryotic (yeast) microorganism species; test: Toxicity screen, whole panel of microorganisms; assay type: cell-based; details: concentrations tested 10 to 0.001 mM
Experimental: as §2, §3, §4

[15] = Determination of critical aggregation concentration (CAC) by DLS; assay type: physicochemical; details: aqueous media
Experimental: The critical aggregation concentrations (CAC) of 4-(N-alkylpyridinium)-1,4-DHP derivatives were determined in aqueous media using a Zetasizer Nano S90 (Malvern Panalytical Ltd., Malvern, UK) instrument with Malvern Instruments Ltd. Software according to procedure described by Topel et al. and modified by our group. Briefly, as stock solutions of tested compounds were used, samples were prepared for self-assembling experiments. All of the subsequent samples were prepared starting from the concentrated stock solution, which was subjected to a serial two-fold dilution each time with water. The intensity values of scattered light (kcps) as a function of concentration of amphiphiles were analysed. The scattering intensities detected for amphiphile concentrations below CAC have an approximately constant value corresponding to water. The intensity starts to show a linear increase with concentration at the CAC, since the amount of nanoparticles increases in the solution. The intersection of the best-fit lines drawn through the data points is the preliminary CAC value of the compounds.

| SMILES | Cytotoxicity IC50, HT-1080 [1] | Cytotoxicity IC50, MH-22A [2] | PDI ± SD, 1 Set [3] | Zeta-Pot ± SD [3] | PDI ± SD, 2 Set [3] | Stability of nanoparticles [3] | IC50 at 72 h [4] | IC50 at 72 h [5] | Toxicity category from estimated LD50 [6] | Boundary concentration, B. subtilis [7] | Boundary concentration, E. coli [8] | Boundary concentration, K. pneumoniae [9] | Boundary concentration, M. luteus [10] | Boundary concentration, P. mirabilis [11] | Boundary concentration, P. aeruginosa [12] | Boundary concentration, S. cerevisiae [13] | Effect on survival of microorganisms [14] | CAC [15] |
| --- | --- | --- | --- | --- | --- | --- | --- | --- | --- | --- | --- | --- | --- | --- | --- | --- | --- | --- |
| CCOC(=O)C1=C(C)NC(C)=C(C(=O)OCC)C1c1ccc[n+](CC)c1 [Compound 1] | did not demonstrate any cytotoxic effect and ne | did not demonstrate any cytotoxic effect and ne | 0.18 and 0.18 ± 0.01 | −8.43 ± 2.14 mV | 0.40 and 0.40 ± 0.16 | lost their homogeneity after two weeks of storage; also recorded: weak stability | – | – | – | – | – | – | – | – | – | – | – | – |
| CCCCCC[n+]1cccc(C2C(C(=O)OCC)=C(C)NC(C)=C2C(=O)OCC)c1 [Compound 2] | – | – | 0.50 and 0.50 ± 0.10 | −11.39 ± 1.85 mV | 0.91 ± 0.10 | weak stability | 26 ± 2 µM | 67 ± 4 µM | non-toxic | – | – | – | – | – | – | – | – | – |
| C#CCN1C(C)=C(C(=O)OCC)C(c2ccc[n+](CC)c2)C(C(=O)OCC)=C1C [Compound 4] | did not demonstrate any cytotoxic effect and ne | did not demonstrate any cytotoxic effect and ne | 0.16 and 0.16 ± 0.02 | −5.47 ± 1.97 mV | 0.41 and 0.41 ± 0.07 | lost their homogeneity after two weeks of storage; also recorded: weak stability | – | – | – | – | – | – | – | – | – | – | – | – |
| C#CCN1C(C)=C(C(=O)OCC)C(c2ccc[n+](CCCCCC)c2)C(C(=O)OCC)=C1C [Compound 5] | – | – | 0.72 and 0.72 ± 0.32 | −9.96 ± 0.72 mV | 0.59 ± 0.01 | weak stability | 5 ± 0.3 µM | 16 ± 1 µM | non-toxic | – | – | – | – | – | – | – | – | – |
| C#CCOC(=O)C1=C(C)NC(C)=C(C(=O)OCC#C)C1c1ccc[n+](CCCCCC)c1 [Compound 8] | – | – | 0.60 and 0.60 ± 0.06 | – | 0.45 ± 0.05 | – | 76 ± 8 µM | 80 ± 5 µM | non-toxic | – | – | – | – | – | – | – | – | – |
| C#CCN1C(C)=C(C(=O)OCC)C(c2ccc[n+](CCCCCCCCCCCCCCCC)c2)C(C(=O)OCC)=C1C [Compound 11] | – | – | 0.37 and 0.37 ± 0.03 | – | 0.33 and 0.33 ± 0.03 | stable after two weeks of storage; also recorded: confirmed the stability of nanoparticles | – | – | – | 0.0001 mM | 0.01 mM | 10 mM | 0.001 mM | 0.0001 mM | 0.01 mM | 0.0001 mM | toxic at various degrees | 7.6 µM |

Reference: paper PMC6470589, “Contribution of Molecular Structure to Self-Assembling and Biological Properties of Bifunctional Lipid-Like 4-(N-Alkylpyridinium)-1,4-Dihydropyridines” (Pharmaceutics, 2019)
